According to PubChem BioAssay (NCI):
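Following 48 hours of exposure in 96-well plates, responses at five concentrations were used to interpolate endpoints linearly. GI50 = concentration required for 50% inhibition of growth. TGI: concentration producing complete growth inhibition.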

Key:
Experiment in all cases: NCI anticancer screen, dose series, 48 h
SK-MEL-28 melanoma = tested on: SK-MEL-28 melanoma
HCC-2998 colon = tested on: HCC-2998 colon
MDA-MB-435 = tested on: MDA-MB-435
HT29 colon = tested on: HT29 colon
TK-10 renal = tested on: TK-10 renal
A498 renal = tested on: A498 renal
IGROV1 ovarian = tested on: IGROV1 ovarian
T-47D breast = tested on: T-47D breast
OVCAR-8 ovarian = tested on: OVCAR-8 ovarian
SR leukemia = tested on: SR leukemia
OVCAR-3 ovarian = tested on: OVCAR-3 ovarian
HL-60(TB) leukemia = tested on: HL-60(TB) leukemia
MCF7 breast = tested on: MCF7 breast
OVCAR-5 ovarian = tested on: OVCAR-5 ovarian
ACHN renal = tested on: ACHN renal
UO-31 renal = tested on: UO-31 renal
CCRF-CEM leukemia = tested on: CCRF-CEM leukemia
MOLT-4 leukemia = tested on: MOLT-4 leukemia
SK-OV-3 ovarian = tested on: SK-OV-3 ovarian
UACC-62 melanoma = tested on: UACC-62 melanoma
NCI-H23 lung = tested on: NCI-H23 lung
LOX IMVI melanoma = tested on: LOX IMVI melanoma
SW-620 colon = tested on: SW-620 colon
M14 melanoma = tested on: M14 melanoma
UACC-257 melanoma = tested on: UACC-257 melanoma
SF-295 CNS = tested on: SF-295 CNS
MDA-MB-231 breast = tested on: MDA-MB-231 breast
NCI-H522 lung = tested on: NCI-H522 lung
SNB-75 CNS = tested on: SNB-75 CNS
MALME-3M melanoma = tested on: MALME-3M melanoma
BT-549 breast = tested on: BT-549 breast
NCI-H226 lung = tested on: NCI-H226 lung
RXF 393 renal = tested on: RXF 393 renal
SK-MEL-5 melanoma = tested on: SK-MEL-5 melanoma
U251 CNS = tested on: U251 CNS
RPMI-8226 leukemia = tested on: RPMI-8226 leukemia
786-0 renal = tested on: 786-0 renal
NCI-H460 lung = tested on: NCI-H460 lung
HCT-15 colon = tested on: HCT-15 colon
HOP-92 NSCLC = tested on: HOP-92 NSCLC
HCT-116 colon = tested on: HCT-116 colon
COLO 205 colon = tested on: COLO 205 colon
KM12 colon = tested on: KM12 colon
HS 578T breast = tested on: HS 578T breast
K-562 leukemia = tested on: K-562 leukemia
DU-145 prostate = tested on: DU-145 prostate
HOP-62 NSCLC = tested on: HOP-62 NSCLC
PC-3 prostate = tested on: PC-3 prostate
OVCAR-4 ovarian = tested on: OVCAR-4 ovarian
A549 NSCLC = tested on: A549 NSCLC
CAKI-1 renal = tested on: CAKI-1 renal
SF-268 CNS = tested on: SF-268 CNS
SNB-19 CNS = tested on: SNB-19 CNS
SF-539 CNS = tested on: SF-539 CNS
SK-MEL-2 melanoma = tested on: SK-MEL-2 melanoma
NCI/ADR-RES ovarian = tested on: NCI/ADR-RES ovarian

Which results are given for `COc1cccc2c1O/C(=C\c1ncc([N+](=O)[O-])n1C)C2=O`?
GI50 (SK-MEL-28 melanoma): 0.239 µM; TGI (SK-MEL-28 melanoma): 0.607 µM; GI50 (HCC-2998 colon): 1.86 µM; TGI (HCC-2998 colon): 7.57 µM; GI50 (MDA-MB-435): 0.133 µM; TGI (MDA-MB-435): 0.29 µM; GI50 (HT29 colon): 0.154 µM; TGI (HT29 colon): 0.599 µM; GI50 (TK-10 renal): 0.87 µM; GI50 (A498 renal): 1.39 µM; TGI (A498 renal): 3.42 µM; GI50 (IGROV1 ovarian): 0.303 µM; TGI (IGROV1 ovarian): 2.46 µM; GI50 (T-47D breast): 8.25 µM; TGI (T-47D breast): 52.9 µM; GI50 (OVCAR-8 ovarian): 0.167 µM; GI50 (SR leukemia): < 0.0165 µM; TGI (SR leukemia): 0.165 µM; GI50 (OVCAR-3 ovarian): 0.236 µM; TGI (OVCAR-3 ovarian): 0.632 µM; GI50 (HL-60(TB) leukemia): 0.234 µM; TGI (HL-60(TB) leukemia): 1.35 µM; GI50 (MCF7 breast): 0.467 µM; TGI (MCF7 breast): 5.04 µM; GI50 (OVCAR-5 ovarian): 1.7 µM; TGI (OVCAR-5 ovarian): 5.82 µM; GI50 (ACHN renal): 0.0826 µM; TGI (ACHN renal): 0.332 µM; GI50 (UO-31 renal): 0.173 µM; TGI (UO-31 renal): 0.622 µM; GI50 (CCRF-CEM leukemia): 0.0537 µM; TGI (CCRF-CEM leukemia): 0.384 µM; GI50 (MOLT-4 leukemia): 0.0689 µM; TGI (MOLT-4 leukemia): 1.36 µM; GI50 (SK-OV-3 ovarian): 0.911 µM; TGI (SK-OV-3 ovarian): 4.21 µM; GI50 (UACC-62 melanoma): 0.569 µM; TGI (UACC-62 melanoma): 1.67 µM; GI50 (NCI-H23 lung): 0.27 µM; TGI (NCI-H23 lung): 1.31 µM; GI50 (LOX IMVI melanoma): 0.116 µM; TGI (LOX IMVI melanoma): 0.414 µM; GI50 (SW-620 colon): 0.0747 µM; TGI (SW-620 colon): 1.7 µM; GI50 (M14 melanoma): 0.218 µM; TGI (M14 melanoma): 0.719 µM; GI50 (UACC-257 melanoma): 0.531 µM; TGI (UACC-257 melanoma): 4.99 µM; GI50 (SF-295 CNS): 1.27 µM; TGI (SF-295 CNS): 4.49 µM; GI50 (MDA-MB-231 breast): 0.31 µM; TGI (MDA-MB-231 breast): 1.57 µM; GI50 (NCI-H522 lung): 0.187 µM; TGI (NCI-H522 lung): 0.474 µM; GI50 (SNB-75 CNS): 1.39 µM; TGI (SNB-75 CNS): 3.97 µM; GI50 (MALME-3M melanoma): 0.224 µM; TGI (MALME-3M melanoma): 0.563 µM; GI50 (BT-549 breast): 0.413 µM; TGI (BT-549 breast): 2.65 µM; GI50 (NCI-H226 lung): 1.47 µM; TGI (NCI-H226 lung): 4.81 µM; GI50 (RXF 393 renal): 0.229 µM; TGI (RXF 393 renal): 0.648 µM; GI50 (SK-MEL-5 melanoma): 0.186 µM; TGI (SK-MEL-5 melanoma): 0.502 µM; GI50 (U251 CNS): 0.745 µM; TGI (U251 CNS): 3.19 µM; GI50 (RPMI-8226 leukemia): 0.949 µM; TGI (RPMI-8226 leukemia): 4.11 µM; GI50 (786-0 renal): 0.375 µM; TGI (786-0 renal): 3.89 µM; GI50 (NCI-H460 lung): 0.203 µM; TGI (NCI-H460 lung): 0.603 µM; GI50 (HCT-15 colon): 0.128 µM; TGI (HCT-15 colon): 0.404 µM; GI50 (HOP-92 NSCLC): 0.343 µM; TGI (HOP-92 NSCLC): 1.68 µM; GI50 (HCT-116 colon): 0.0825 µM; TGI (HCT-116 colon): 0.691 µM; GI50 (COLO 205 colon): 0.254 µM; TGI (COLO 205 colon): 1.1 µM; GI50 (KM12 colon): 0.348 µM; TGI (KM12 colon): 1.55 µM; GI50 (HS 578T breast): 1.04 µM; TGI (HS 578T breast): > 21 µM; GI50 (K-562 leukemia): 0.422 µM; TGI (K-562 leukemia): 6.22 µM; GI50 (DU-145 prostate): 0.266 µM; TGI (DU-145 prostate): 0.809 µM; GI50 (HOP-62 NSCLC): 0.716 µM; TGI (HOP-62 NSCLC): 2.25 µM; GI50 (PC-3 prostate): 0.662 µM; GI50 (OVCAR-4 ovarian): 1.92 µM; TGI (OVCAR-4 ovarian): 6.23 µM; GI50 (A549 NSCLC): 0.509 µM; TGI (A549 NSCLC): 3.45 µM; GI50 (CAKI-1 renal): 0.2 µM; TGI (CAKI-1 renal): 0.579 µM; GI50 (SF-268 CNS): 0.221 µM; TGI (SF-268 CNS): 0.816 µM; GI50 (SNB-19 CNS): 1.3 µM; TGI (SNB-19 CNS): 5.75 µM; GI50 (SF-539 CNS): 1.32 µM; TGI (SF-539 CNS): 3.51 µM; GI50 (SK-MEL-2 melanoma): 0.242 µM; TGI (SK-MEL-2 melanoma): 0.607 µM; GI50 (NCI/ADR-RES ovarian): 0.277 µM; TGI (NCI/ADR-RES ovarian): 2.9 µM
